Entries after “also recorded” stand apart in the source; their conditions may differ.
Experiments:
3xTg AD mice [1] = assay: Morris water maze test in AD-3xTg mice; type: in vivo
Experimental: Red dot, starting point of the swim; green dot, end point of the swim.
(§1) N=4 for wild-type and 10 mg/kg donepezil-treated 3xTg mice. N=6 for vehicle-treated 3xTg mice, 60 mg/kg n-BP-treated 3xTg mice, and 120 mg/kg n-BP-treated 3xTg mice. *p-value<0.05, **p-value<0.01 (Student's t-test). […] After 4-12 months, the B6 (C57/BL6) control mice have no AP accumulation (Green color).
The mice behavioral experiment using Morris water maze is a classical test to detect short-term memory and complex memory. Through its behavior, it can be determined whether there is a difference in memory after drug treatment. […] Two sessions were conducted on Day 1 as follows: (1) mice were placed in the swimming pool to adapt to the environment for a training duration of 120 seconds; (2) a hidden rest platform was added to the pool at a precise location in the northwest corner of the pool (blue diamond in the east; red circle in the west and yellow triangle in the south as shown in FIG. 7G) and the mice were allowed for to swim in the pool for a duration of another 120 seconds. If the rescue platform was not found by the mouse within the allocated time, the mouse was guided to the platform. The test for finding the rescue platform is carried out for the next four consecutive days, with each session lasting 90 seconds. The result is collected and analyzed.

[2] = test system: miR-29b-2-5p and PSEN1 expression in Ts-21 iPSCs; assay: Real-time PCR of miR-29b-2-5p and PSEN1 in Ts-21 iPSCs; type: cell-based, human; details: 100 μM n-BP
Text: FIGS. 6A and 6B show the RT-qPCR analysis result of expression levels of miR-29b-2-5p/miR-9-5p and PSEN1/β-actin with or without […] n-BP. n=3 for each group.

SH-SY5Y [3] = assay: Aβ1-42 poisoning experiment in SH-SY5Y cells (MTT); type: cell-based, human; details: n-butylidenephthalide 100 μM, vitamin C 200 μM, alone or in combination, Aβ1-42 1 μM
Text: (§2) Then, the cell viability is detected by a cell survival test using (3-(4,5-dimethylthiazol-2-yl)-2,5-diphenyltetrazolium bromide (MTT) assay.

[4] = test system: PSEN-1, PSEN-2, Aβ1-42 and NICD in C6-C99 cells; assay: Western blotting of amyloid-related proteins in C6-C99 cells; type: cell-based; details: C6-C99 cells
Text: FIG. 3B to FIG. 3E are the quantitative results of the Western blotting analysis of PSEN-1, PSEN-2, β-amyloid 1-42 (Aβ1-42) and NICD in FIG. 3A, respectively (p*<0.05, p**<0.01). The C6-C99 cells used in FIGS. 3A to 3E are glioma cells having a fragment of human amyloid precursor protein (APP). This fragment is a peptide fragment with 99 amino acids (APP-C99), which can express large amounts of PSEN-1, PSEN-2, and Aβ 1-42 after activation by cumate.
Western blotting is used to detect the expression levels of amyloid-related proteins, including PSEN-1, PSEN-2, and β-amyloid 1-42 (Aβ1-42), while simultaneously detect the expression level of Notch protein (Notch intracellular domain, NICD), which is an indicator of drug safety. If the Notch protein is not affected, then drug safety is indicated.
APP-C99 was transfected into C6 cells with the C99 peptide through cumate-inducible system activation.

3xTg AD mice [5] = assay: 18F-FBB PET/CT of amyloid accumulation in the brain of 3xTg mice; type: in vivo
Experimental: as §1
FIGS. 8B and 8C show the comparison of VOI-based 18F-florbetaben SUVR(CTX/CB) and SUVR (HIP/CB) between B6 mice, vehicle-treated 3xTg transgenic, and n-BP-treated mice (60 mg/kg) aged 6 and 12 months. n=4 for B6 mice. n=5 for 3xTg mice. SUVR; standard uptake value ratio, M; months, cerebellum: CB.
The accumulation of amyloid in brain tissues can be detected by using an amyloid tracking agent, 18F-Florbetaben (FBB). 18F-FBB positron emission tomography-computed tomography (PET/CT) was used to explore the effect of n-BP treatment on AP accumulation in the hippocampus and cortex. The accumulation of amyloid will appear red in the picture. The quantity and location of AP accumulation in the brains of mice were determined using the tracking reagent 18F-FBB from birth to 4 to 12 months of age.

3xTg AD mice [6] = assay: Immunostaining with Aβ1-42 antibody of brain sections; type: in vivo
Experimental: FIGS. 8D and 8E show the result of immunostaining with Aβ1-42 antibody to detect amyloid deposition in the brain. Brain sections were selected at −2.2 mm posterior to bregma. Red dot indicated Aβ1-42 plaque accumulation. n=5 for B6 mice and 3xTg-60 mg/kg n-BP group. n=4 for 3xTg vehicle group. n=6 for […]. Scale bars represent 1 mm. *p-value<0.05, **p-value<0.01 (Student's t-test).
It was observed that AP accumulation was absent in the hippocampus of B6 mice but present in that of 3xTg AD mice. […] Specifically, immunostaining was used to detect Aβ1-42 accumulation in the hippocampus of 14-month-old 3xTg AD mice.

Aβ1-42 = assay: ELISA of Aβ1-42 in the medium of Ts-21 iPSCs; type: cell-based, human; details: 100 μM n-BP
[7] = test system: miR-29b-2-5p and PSEN1 in the hippocampus of 3xTg AD mice; assay: RT-qPCR of miR-29b-2-5p and PSEN1 in the hippocampus of 3xTg AD mice; type: in vivo
Text: FIGS. 7E and 7F show the RT-qPCR analysis result of the expression levels of miR-29b-2-5p and PSEN1, respectively, in the hippocampus of 3xTg AD mice. n=—4.
AD-3xTg transgenic mice are an animal model used to study Alzheimer's disease. The transgenic mice are genetically engineered to carry point mutations of human amyloid precursor protein (APP), microtubule-associated protein tau (MAPT P301L) and type I presenilin protein (PSEN-1). The AD-3xTg transgenic mice carrying Alzheimer's mutation genes affect the brain and produce symptoms, mainly involving amyloid aggregation in the hippocampus and cerebral cortex. […] The 3xTg mice have β-amyloid accumulation in the brain and have problems related to cognition.

SH-SY5Y [8] = assay: MTT cell viability of SH-SY5Y cells; details: n-Bp 100 μM, vitamin C 200 μM
Text: as §2

[9] = hippocampal gyrus of AD-3xTg mice, 120 mg/kg orally, vs untreated
[10] = hippocampus of 3xTg AD mice, control 100%

Compound: CCCC=C1OC(=O)c2ccccc21 [n-BP, n-butylidenephthalide]
- Movement trajectory (3xTg AD mice [1]; 120 mg n-BP/kg vs 60 mg n-BP/kg): shorter movement trajectory
- Locating and arriving at the resting platform (3xTg AD mice [1]; 120 mg/kg n-BP, donepezil as positive control): able to quickly locate and arrive at the resting platform
- Finding the rest platform after training (3xTg AD mice [1]; 60 and 120 mg n-BP/kg): could find the rest platform after training
- Time required to find the platform (3xTg AD mice [1]; Day 5, 120 mg/kg n-BP, 10 mg donepezil/kg, vs untreated 3xTg mice): significantly lower
- Expression levels of other AD-related genes BACE1, PSEN2, APOE3 and APOE4 [2]: without significant difference
- PSEN1 expression (real-time PCR) [2]: 58.10%±29.28%
- miR-29b-2-5p expression [2]: 12.38 fold
- Cell survival, protection against Aβ1-42 damage (SH-SY5Y [3]): has an effect on increasing cell survival
- Aβ1-42 expression ([4]; 100 μM n-BP): 40.53%±28.46%
- PSEN1 expression ([4]; 100 μM n-BP): 37.33%±23.1%
- Aβ1-42 expression ([4]; 100 μM, FIG. 3): significantly reduced
- Notch protein (NICD) expression, indicator of drug safety ([4]; 100 μM, FIG. 3): not affected
- PSEN-1 expression ([4]; 100 μM, FIG. 3): significantly reduced
- PSEN-2 expression ([4]; 100 μM, FIG. 3): significantly reduced
- Standardized uptake value ratio (SUVR) of FBB in the hippocampus and cortex (3xTg AD mice [5]; 120 mg n-BP/kg, age 12 months vs age 6 months): significantly lower
- Aβ accumulation in hippocampus and cortex (18F-FBB PET/CT) (3xTg AD mice [5]; 3xTg AD mice, oral n-BP 60 or 120 mg/kg): less AP accumulation; also recorded: low levels of amyloid accumulation
- Aβ accumulation in the hippocampus (Aβ1-42 antibody) (3xTg AD mice [6]; 3xTg AD mice, either dose of n-BP (60 or 120 mg/kg)): significantly decreased
- Aβ1-42 accumulation in the brain (immunostaining) (3xTg AD mice [6]; 14-month-old 3xTg AD mice, 120 mg n-BP/kg, vs vehicle): significantly reduced
- Aβ1-42 expression (ELISA, medium) (Aβ1-42): decrease
- Gene expression level of PSEN-1 [7, 9]: decreased expression levels
- Gene expression level of miRNA-29b-2-5p [7, 9]: higher expression levels
- PSEN1 expression [7, 10]: 26.26%±27.75%
- miR-29b-2-5p expression [7, 10]: 188.58%±55.09%
- Cell survival (biosafety) (SH-SY5Y [8]): Neither butylidenephthalide nor vitamin C has any effect on cell survival
